Test results taken from patent publication US20100331297A1, “MODULATION OF PROTEIN TRAFFICKING” (FOLDRX PHARMACEUTICALS, INC., priority 2007, published 2010).

The compounds below were run on ypt1^ts cells (assay: Rescue of growth of ypt1^ts mutant yeast (OD600)). Conditions: Saccharomyces cerevisiae, read-out: Ypt1-ts MRC (Minimum Rescue Concentration), ypt1^ts cells, 35° C. and 37° C., OD600; multiple results separated by a comma.
Assay type: cell-based
From the text: The activity of the compounds as modulators of protein trafficking may be measured in the assays described herein that evaluate the ability of a compound to rescue an impairment in protein trafficking. For example, the yeast mutant cell line ypt1^ts can be used to identify compounds that rescue cells from the lethal phenotype of a mutant YPT1 allele (see, e.g., Examples and Schmitt et al. (1988) Cell 53:635-47). The activity may be measured, for example, in a whole yeast cell assay using 384-well screening protocol and an optical density measurement.
The yeast mutant cell line ypt1^ts suppresses, in a temperature dependent fashion, the dominant-lethal phenotype of a mutant YPT1 allele (Schmitt et al. (1988) Cell 53:635-47). The yeast mutant cell line ypt1^ts contains an allele of YPT1 that has two point mutations: one that changes an asparagine at position 121 to a isoleucine (N121I) and another that changes an alanine at position 161 to a valine (A161V). The N121I mutation causes dominant lethality by itself, but lethality is suppressed by the second mutation, resulting in a recessive loss of function phenotype at the restrictive temperatures. ypt1^ts cells grow normally at temperatures up to 25° C., but are growth arrested at 37° C. (Id.).
Compounds were screened to assess their ability to restore growth of ypt1^ts cells. The effect of the compounds was measured on ypt1^ts cells cultured at room temperature (permissive temperature), 37° C. (non-permissive temperature), and 35° C. (semi-permissive temperature).
To determine if the test compounds could rescue the ypt1^ts mutant phenotype, ypt1^ts cells were grown overnight in synthetic complete (SC) media supplemented with 2% glucose at room temperature. Log phase cells were diluted into SC 2% glucose media to an OD600 of 0.003. 100 μL of this culture was then aliquoted into each well of 96-well flat bottom microtiter plates. 1 μL of the test compounds dissolved in DMSO (at a concentration range from 5 mM-0.005 mM) or of DMSO alone was added to each well (50 μM-0.05 μM final concentration in 1% DMSO). Plates were mixed by vortexing and incubated at 35° C. and 37° C. Compound rescue of the ypt1^ts temperature sensitive defect was assessed by measuring the OD600 (optical density at 600 nm; cell growth) of the cultures. Plates incubated at 35° C. were measured at 24 and 40 hours incubation time while plates grown at 37° C. were measured after 40 hours of incubation.
Assays monitoring the rescue of ypt1^ts mutants were performed using a vehicle, a positive control (calcium), and the compounds identified in Table II. Results in Table II corresponding to an MRC (Minimum Rescue Concentration) for ypt1^ts of greater than or equal to 50 micromolar are labeled +; of an MRC for ypt1^ts of 10-50 micromolar are labeled ++; and of an MRC for ypt1^ts of less than 10 micromolar are labeled +++. Multiple results for a particular compound are separated by a comma.

Row | SMILES | minimal effective concentration
1 | Cn1nc(-c2ccc(Cl)cc2)c2c(N)ncnc21 [compound 1] | > 50 µM
2 | Nc1ncnc2c1c(-c1ccc(Cl)cc1)nn2C1CCCCC1 [compound 3] | > 50 µM
3 | Nc1ncnc2c1c(-c1ccc(Cl)cc1)nn2-c1ccccc1 [compound 4] | > 50 µM
4 | CC(C)(C)n1nc(-c2cccc3ccccc23)c2c(N)ncnc21 [compound 6] | 10 to 50 µM
5 | CC(C)(C)n1nc(-c2ccc(F)cc2)c2c(N)ncnc21 [compound 9, 1-tert-Butyl-3-(4-fluoro-phenyl)-1H-pyrazolo[3,4-d]pyrimidin-4-ylamine] | > 50 µM
6 | CC(C)(C)n1ncc2c(N)ncnc21 [compound 12, 1-tert-butyl-1H-pyrazolo[3,4-d]pyrimidin-4-ylamine] | > 50 µM
7 | COc1ccc(-c2nn(C(C)(C)C)c3ncnc(N)c23)cc1 [compound 13] | > 50 µM
8 | CC(C)(C)n1nc(-c2ccc(-c3ccccc3)cc2)c2c(N)ncnc21 [compound 14] | > 50 µM
9 | CC(C)(C)n1nc(-c2cccs2)c2c(N)ncnc21 [compound 15] | > 50 µM
10 | CC(C)c1ccc(-c2nn(C(C)(C)C)c3ncnc(N)c23)cc1 [compound 17] | > 50 µM
11 | CC(C)(C)c1ccc(-c2nn(C(C)(C)C)c3ncnc(N)c23)cc1 [compound 18] | > 50 µM
12 | CC(C)(C)n1nc(Cc2ccc(Cl)cc2)c2c(N)ncnc21 [compound 19] | < 10 µM
13 | CC(C)(C)n1nc(Cc2ccccc2Cl)c2c(N)ncnc21 [compound 20] | 10 to 50 µM
14 | CC(C)(C)n1nc(Cc2ccc(Cl)c(Cl)c2)c2c(N)ncnc21 [compound 21] | > 50 µM
15 | Cc1ccc(Cc2nn(C(C)(C)C)c3ncnc(N)c23)cc1 [compound 22] | 10 to 50 µM
16 | CC(C)(C)n1nc(Cc2ccc3c(c2)OCO3)c2c(N)ncnc21 [compound 23] | 10 to 50 µM
17 | Nc1ncnc2c1c(-c1ccc(Cl)cc1)nn2Cc1ccccc1 [compound 28] | 10 to 50 µM
18 | CC(C)(C)n1nc(-c2ccc(C#N)cc2)c2c(N)ncnc21 [compound 35] | > 50 µM
19 | CC(C)(C)n1nc(-c2ccc(Cl)c(Cl)c2)c2c(N)ncnc21 [compound 36] | > 50 µM

Row | SMILES | minimal effective concentration
20 | CC(C)(C)n1nc(-c2ccsc2)c2c(N)ncnc21 [compound 37] | > 50 µM
21 | CC(C)(C)n1nc(-c2cc3ccccc3o2)c2c(N)ncnc21 [compound 42] | > 50 µM
22 | Cc1ccc(-c2nn(C(C)(C)C)c3ncc(C(=O)O)c(N)c23)cc1 [compound 45, 4-Amino-1-tert-butyl-3-p-tolyl-1H-pyrazolo[3,4-b]pyridine-5-carboxylic acid] | > 50 µM
23 | CC(C)(C)n1nc(CCc2ccccc2)c2c(N)ncnc21 [compound 48] | > 50 µM
24 | CC(c1ccccc1)c1nn(C(C)(C)C)c2ncnc(N)c12 (stereo not shown) [compound 49] | 10 to 50 µM
25 | CC(C)(C)n1nc(Cc2cccc(F)c2)c2c(N)ncnc21 [compound 50] | 10 to 50 µM
26 | CC(C)(C)n1nc(Cc2ccc(F)cc2)c2c(N)ncnc21 [compound 51] | > 50 µM
27 | Cc1cccc(Cc2nn(C(C)(C)C)c3ncnc(N)c23)c1 [compound 52] | 10 to 50 µM
28 | CCn1nc(-c2ccc(Cl)cc2)c2c(N(C(C)=O)C(C)=O)ncnc21 [compound 54] | > 50 µM
29 | COc1cccc(Cc2nn(C(C)(C)C)c3ncnc(N)c23)c1 [compound 56] | 10 to 50 µM
30 | Cc1nc(N)c2c(-c3ccc(Cl)cc3)nn(C(C)(C)C)c2n1 [compound 57] | 10 to 50 µM
31 | CC(C)(C)n1nc(Cc2cccc(Br)c2)c2c(N)ncnc21 [compound 58] | < 10 µM
32 | CC(C)(C)n1nc(Cc2cccc(C#N)c2)c2c(N)ncnc21 [compound 59] | > 50 µM
33 | CC(C)(C)n1nc(Cc2cccc(-c3ccccc3)c2)c2c(N)ncnc21 [compound 60] | > 50 µM
34 | CCc1nc(N)c2c(-c3ccc(Cl)cc3)nn(C(C)(C)C)c2n1 [compound 61] | > 50 µM
35 | CC(C)(C)n1nc(-c2ccc(Cl)cc2)c2c(N)nc(C3CC3)nc21 [compound 62] | > 50 µM
36 | CC(C)(C)n1nc(-c2ccc(Cl)cc2)c2c(N)nc(CC3CC3)nc21 [compound 63] | > 50 µM
37 | C#Cc1cccc(Cc2nn(C(C)(C)C)c3ncnc(N)c23)c1 [compound 64] | 10 to 50 µM
38 | Cc1ccc(Cc2nn(C(C)(C)C)c3ncnc(N)c23)cc1C [compound 65] | 10 to 50 µM

Row | SMILES | minimal effective concentration
39 | CC(C)(C)n1nc(Cc2cccc3c2OCC3)c2c(N)ncnc21 [compound 66] | 10 to 50 µM
40 | CC(C)(C)n1nc(Cc2cccc3ccoc23)c2c(N)ncnc21 [compound 68] | 10 to 50 µM
41 | Cc1ccc(-c2nn(C(C)(C)C)c3nccc(N)c23)cc1 [compound 69, 1-tert-Butyl-3-p-tolyl-1H-pyrazolo[3,4-b]pyridin-4-ylamine] | > 50 µM
42 | Nc1ncnc2[nH]nc(Cc3cccc4ccccc34)c12 [compound 70] | > 50 µM
43 | CCn1nc(Cc2cccc3ccccc23)c2c(N)ncnc21 [compound 71] | < 10 µM
44 | Nc1ncnc2c1c(Cc1cccc3ccccc13)nn2CC1CC1 [compound 72] | < 10 µM
45 | Nc1ncnc2c1c(Cc1cccc3ccccc13)nn2C1CC1 [compound 73] | < 10 µM
46 | CC(C)Cn1nc(Cc2cccc3ccccc23)c2c(N)ncnc21 [compound 75] | < 10 µM
47 | C=CCn1nc(Cc2cccc3ccccc23)c2c(N)ncnc21 [compound 76] | 10 to 50 µM
48 | CC(C)n1nc(Cc2cccc3ccccc23)c2c(N)ncnc21 [compound 78] | < 10 µM
49 | CC(C)(C)n1nc(COCc2ccccc2)c2c(N)ncnc21 [compound 81, 3-benzyloxymethyl-1-tert-butyl-1H-pyrazolo[3,4-d]pyrimidin-4-ylamine] | > 50 µM
50 | CC(C)(C)n1nc(C(O)c2ccccc2)c2c(N)ncnc21 (stereo not shown) [compound 82, (4-amino-1-tert-butyl-1H-pyrazolo[3,4-d]pyrimidin-3-yl)-phenyl-methanol] | > 50 µM
51 | CC(C)(C)n1nc(C(=O)c2ccccc2)c2c(N)ncnc21 [compound 83, (4-Amino-1-tert-butyl-1H-pyrazolo[3,4-d]pyrimidin-3-yl)-phenyl-methanone] | > 50 µM
52 | CC(C)(C)n1nc(C(=O)O)c2c(N)ncnc21 [compound 85, 4-Amino-1-tert-butyl-1H-pyrazolo[3,4-d]pyrimidine-3-carboxylic acid] | > 50 µM
53 | CN(C)c1cccc(C(O)c2nn(C(C)(C)C)c3ncnc(N)c23)c1 (stereo not shown) [compound 87] | > 50 µM
54 | CC(C)(C)n1nc(CNc2ccccc2)c2c(N)ncnc21 [compound 88] | 10 to 50 µM
55 | CC(C)(C)n1nc(C(N)=O)c2c(N)ncnc21 [compound 89, 4-Amino-1-tert-butyl-1H-pyrazolo[3,4-d]pyrimidine-3-carboxylic acid amide] | > 50 µM
56 | CC(C)(C)n1nc(Cc2ccc(F)c3ccccc23)c2c(N)ncnc21 [compound 91] | < 10 µM
57 | CC(C)(C)n1nc(Cc2cccc3ccccc23)c2c(N)nc(C3CC3)nc21 [compound 92] | > 50 µM

The compounds below were run against ΔF508 CFTR (Homo sapiens, UniProt P13569, DEL508-508) (assay: Corrector activity, YFP halide (iodide) quenching assay in FRT cells expressing ΔF508 CFTR). Conditions: Corrector EC50, FRT cells ΔF508 CFTR/YFP, 24 hours with compound at 37° C., forskolin and genistein.
Chain of ΔF508 CFTR (P13569 with tags, fused parts or gaps DEL508-508): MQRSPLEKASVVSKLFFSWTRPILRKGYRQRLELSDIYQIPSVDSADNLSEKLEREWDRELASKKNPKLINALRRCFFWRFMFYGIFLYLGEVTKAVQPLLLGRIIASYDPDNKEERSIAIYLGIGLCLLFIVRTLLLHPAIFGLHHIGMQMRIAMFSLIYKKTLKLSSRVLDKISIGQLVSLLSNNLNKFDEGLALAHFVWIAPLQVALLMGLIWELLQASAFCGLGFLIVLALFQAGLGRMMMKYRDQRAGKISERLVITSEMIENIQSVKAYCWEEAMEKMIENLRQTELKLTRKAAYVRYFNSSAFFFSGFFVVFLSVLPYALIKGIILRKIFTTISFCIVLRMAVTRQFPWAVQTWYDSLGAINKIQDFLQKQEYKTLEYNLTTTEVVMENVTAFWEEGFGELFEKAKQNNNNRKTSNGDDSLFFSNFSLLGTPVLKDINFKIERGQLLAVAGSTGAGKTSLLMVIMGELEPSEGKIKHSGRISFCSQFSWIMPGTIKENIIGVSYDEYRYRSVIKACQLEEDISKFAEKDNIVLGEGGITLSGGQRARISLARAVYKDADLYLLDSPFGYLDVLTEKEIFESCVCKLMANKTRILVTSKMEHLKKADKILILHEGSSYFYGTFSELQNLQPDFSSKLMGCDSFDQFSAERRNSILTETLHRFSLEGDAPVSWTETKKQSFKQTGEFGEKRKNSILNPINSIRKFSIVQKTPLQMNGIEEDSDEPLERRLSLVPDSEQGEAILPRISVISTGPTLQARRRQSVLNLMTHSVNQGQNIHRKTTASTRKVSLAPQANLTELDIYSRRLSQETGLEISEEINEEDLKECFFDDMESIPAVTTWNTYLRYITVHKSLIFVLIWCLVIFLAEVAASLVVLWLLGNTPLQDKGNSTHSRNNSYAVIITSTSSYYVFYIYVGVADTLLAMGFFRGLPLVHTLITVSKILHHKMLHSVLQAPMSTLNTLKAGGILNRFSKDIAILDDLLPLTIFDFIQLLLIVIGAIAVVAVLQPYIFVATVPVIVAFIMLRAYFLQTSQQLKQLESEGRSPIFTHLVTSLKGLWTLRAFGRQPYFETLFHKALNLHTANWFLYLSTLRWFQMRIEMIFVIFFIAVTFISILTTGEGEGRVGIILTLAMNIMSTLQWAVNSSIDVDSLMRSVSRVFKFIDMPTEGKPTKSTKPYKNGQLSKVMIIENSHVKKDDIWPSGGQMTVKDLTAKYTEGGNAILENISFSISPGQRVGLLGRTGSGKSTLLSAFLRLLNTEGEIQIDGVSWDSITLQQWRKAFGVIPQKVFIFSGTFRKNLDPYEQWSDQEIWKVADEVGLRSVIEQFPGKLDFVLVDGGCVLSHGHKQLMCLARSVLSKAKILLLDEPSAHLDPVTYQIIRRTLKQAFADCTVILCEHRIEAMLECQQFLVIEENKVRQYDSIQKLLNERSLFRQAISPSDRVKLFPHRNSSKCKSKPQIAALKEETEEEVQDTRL
Assay type: cell-based
Parameters: expressed in transfected cells; host or cells: Fischer rat thyroid (FRT) cells
Outline: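 FRT cells co-expressing ΔF508 CFTR and halide-sensitive YFP were incubated 24 h at 37° C with compounds, then stimulated 30 min at 37° C in PBS with forskolin and genistein. Endpoint fluorescence after iodide injection was normalized to initial reading; EC50 from 4-parameter fit with bottom constrained to DMSO control.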

Row | SMILES | EC50
58 | CC(C)(C)n1nc(-c2cccc3ccccc23)c2c(N)ncnc21 [compound 6] | > 15 µM

Same assay, conditions: FRT cells ΔF508 CFTR/YFP, 24 hours with compound at 37° C., forskolin and genistein; read-out: Corrector EC50

Row | SMILES | EC50
59 | Cn1nc(-c2ccc(Cl)cc2)c2c(N)ncnc21 [compound 1] | > 15 µM
60 | Nc1ncnc2c1c(-c1ccc(Cl)cc1)nn2C1CCCCC1 [compound 3] | > 15 µM
61 | Nc1ncnc2c1c(-c1ccc(Cl)cc1)nn2-c1ccccc1 [compound 4] | > 15 µM
